Data set [1] concerns the target Peroxisome proliferator-activated receptor gamma/Nuclear receptor coactivator 1 (Homo sapiens, UniProt P37231). Put plainly: TR-FRET dose response biochemical High Throughput Screening assay for agonists of the steroid receptor coactivator 1 (SRC-1) recruitment by the peroxisome proliferator-activated receptor gamma (PPAR gamma): non-selective agonists. [Related pubchem assays (depositor defined):AID1300, AID1808, AID504735, AID631]. The data set is classed as protein assay.

Data set [2] concerns the target Peroxisome proliferator-activated receptor gamma/Nuclear receptor coactivator 3 (Homo sapiens, UniProt P37231). Put plainly: TR-FRET dose response biochemical High Throughput Screening assay for agonists of the steroid receptor coactivator 3 (SRC-3) recruitment by the peroxisome proliferator-activated receptor gamma (PPAR gamma): non-selective agonists. [Related pubchem assays: 1301 (Confirmation screen.), 1048 (Primary screen.)]. The data set is classed as functional. A general note: TR-FRET usually uses a lanthanide donor and a delayed reading to cut background.

Data set [3] concerns the target Protein-tyrosine kinase 2-beta (Homo sapiens, UniProt Q14289).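 Note: potency of inhibitors of PYK2 kinase phosphorylation of poly-GT substrate.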
In data set [4] the target is T1, Peroxisome proliferator-activated receptor gamma/Nuclear receptor corepressor 2 (Homo sapiens, UniProt P37231+Q9Y618). Put plainly: Counterscreen for NR2E3 inverse agonists: TR-FRET-based biochemical high throughput dose response assay to identify inverse agonists of the interaction between peroxisome proliferator-activated receptor gamma (PPARg) and nuclear receptor co-repressor 2 (NCOR2). Format: functional. Background: A counterscreen serves to expose hits that act by an unwanted route or on another target.

Data set [5] has as its target T2, Photoreceptor-specific nuclear receptor (Homo sapiens, UniProt Q9Y5X4). Put plainly: ligands suppressing NR2E3 nuclear receptor activity – biochemical, TR-FRET, dose response (AID 463256). The data set is classed as functional.
For data set [6], the target named is Peroxisome proliferator-activated receptor gamma/Nuclear receptor coactivator 2 (Homo sapiens, UniProt P37231). Put plainly: TR-FRET dose response biochemical High Throughput Screening assay for agonists of the steroid receptor coactivator 2 (SRC-2) recruitment by the peroxisome proliferator-activated receptor gamma (PPAR gamma): non-selective agonists. [Related pubchem assays: 1297, 1032 ]. Format: functional.

For data set [7], the target named is Sphingosine 1-phosphate receptor 2 (Homo sapiens, UniProt O95136). Put plainly: Dose Response Cell Based Assay for Antagonists of the S1P2 Receptor. [Related pubchem assays: 856, 736 ]. The data set is classed as functional.
The test system of data set [8] is Streptococcus sp. 'group A'. The data set is described as follows: Streptococcus pyogenes SK(-)GAS viability under kanamycin – luminescence, BacTiterGlo, confirmation, counter-screen for streptokinase expression inhibitor project, dose response (AID 1900). Format: functional, organism-based.
The target in another data set is T3, Streptokinase A (Streptococcus pyogenes serotype M1, UniProt P10520).
T3 sequence (P10520 whole entry): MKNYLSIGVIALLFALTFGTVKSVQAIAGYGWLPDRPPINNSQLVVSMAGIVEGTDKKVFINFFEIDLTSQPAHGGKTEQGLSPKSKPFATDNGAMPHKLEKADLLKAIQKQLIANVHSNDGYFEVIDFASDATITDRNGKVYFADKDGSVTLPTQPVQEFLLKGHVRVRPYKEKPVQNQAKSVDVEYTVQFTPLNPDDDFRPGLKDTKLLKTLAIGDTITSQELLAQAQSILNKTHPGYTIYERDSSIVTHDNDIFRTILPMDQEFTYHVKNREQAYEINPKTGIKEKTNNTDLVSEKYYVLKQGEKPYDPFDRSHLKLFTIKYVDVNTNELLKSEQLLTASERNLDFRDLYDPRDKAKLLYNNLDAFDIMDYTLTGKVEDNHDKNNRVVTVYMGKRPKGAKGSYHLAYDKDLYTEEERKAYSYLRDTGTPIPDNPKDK
The data set is described as follows: viability-normalized secreted streptokinase activity reduction – plasminogen activation absorbance, OD405, dose response (AID 1914).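 Note: secreted streptokinase activity via plasminogen activation per viability signal from cell pellet.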 The data set is classed as functional, Streptococcus pyogenes M1 GAS.

In a further data set the test system is Streptococcus. The data set is described as follows: GAS UMAA2166 growth inhibition – luminescence, BacTiterGlo, counter-screen for streptokinase expression inhibitor project, dose response (AID 1915).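 Note: potency for reduction of bacterial viability or growth.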 Format: functional, organism-based.
The next data set addresses Cytochrome P450 3A4 (Homo sapiens, UniProt P08684).
Data set [9] has as its target Mitogen-activated protein kinase 10 (Homo sapiens, UniProt P53779). Put plainly: Dose response biochemical screening assay for inhibitors of c-Jun N-Terminal Kinase 3 (JNK3). [Related pubchem assays: 746 ].
Another data set deals with Cytochrome P450 2D6 (Homo sapiens, UniProt P10635).
Chain of Cytochrome P450 2D6 (P10635 whole entry): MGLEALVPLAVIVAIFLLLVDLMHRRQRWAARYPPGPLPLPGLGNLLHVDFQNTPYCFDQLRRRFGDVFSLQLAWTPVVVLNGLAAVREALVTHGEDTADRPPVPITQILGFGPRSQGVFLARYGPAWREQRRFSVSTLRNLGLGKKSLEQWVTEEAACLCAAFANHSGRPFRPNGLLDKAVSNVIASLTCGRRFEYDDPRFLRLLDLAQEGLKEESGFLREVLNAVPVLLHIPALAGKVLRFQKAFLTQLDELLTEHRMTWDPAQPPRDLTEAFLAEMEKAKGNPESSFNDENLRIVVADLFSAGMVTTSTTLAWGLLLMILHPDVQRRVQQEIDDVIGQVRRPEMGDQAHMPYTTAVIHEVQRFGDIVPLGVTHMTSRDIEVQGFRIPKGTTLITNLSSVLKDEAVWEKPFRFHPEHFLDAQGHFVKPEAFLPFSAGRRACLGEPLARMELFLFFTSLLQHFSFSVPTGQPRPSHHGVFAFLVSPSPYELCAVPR
Data set [10] can be described thus: Luminescence Cell-Based Dose Response to Identify Activators of 5'UTR Stem-Loop Driven Prion Protein mRNA Translation in H4-C Neuroglioblastoma Cells. [Related pubchem assays: 1829 (Project Summary), 1814 (Primary HTS)]. Format: functional.
A short description of data set [11]: Luminescence Cell-Based Dose Confirmation HTS to Identify Activators of 5'UTR Stem-Loop Driven Alpha-Synuclein mRNA Translation in H4 Neuroglioblastoma Cells. [Related pubchem assays: 1829 (Project Summary), 1814 (Primary HTS)]. Format: functional.
A short description of data set [12]: Luminescence Cell-Based Dose Response HTS to Identify Activators of Luciferase Translation or Activity in H4 […] Cells. [Related pubchem assays: 1829 (Project Summary), 1814 (Primary HTS)]. The data set is classed as functional.
For the next data set, the system named is H4. Put plainly: Luminescence Cell-Based Dose Response HTS to Identify Activators of 5'UTR Stem-Loop Driven Prion Protein mRNA Translation in H4 Neuroglioblastoma Cells. [Related pubchem assays: 1829 (Project Summary), 1814 (Primary HTS)]. Format: functional. Particulars: Homo sapiens.
Data set [13] can be described thus: Luminescence Cell-Based Dose Response to Identify Activators of Luciferase Translation or Activity in H4-C Neuroglioblastoma Cells. [Related pubchem assays: 1829 (Project Summary), 1814 (Primary HTS)]. The data set is classed as functional.
In data set [14] the target is Heat shock protein HSP 90-alpha (Homo sapiens, UniProt P07900). Put plainly: Luminescence-based dose response biochemical high throughput screening assay for inhibitors of the Heat Shock Protein 90 (HSP90). [Related pubchem assays: 1831 (Summary AID.), 1846 (Confirmation screen.), 1789 (Primary screen.)].
Data set [15] can be described thus: Luminescence Cell-Based Dose Confirmation to Identify Activators of 5'UTR Stem-Loop Driven Alpha-Synuclein mRNA Translation in H4 Neuroglioblastoma Cells. [Related pubchem assays: 1829 (Project Summary), 1814 (Primary HTS)]. The data set is classed as functional.
A further data set addresses Ephrin type-A receptor 4 (Mus musculus, UniProt Q03137). The data set is described as follows: EphA4 ligand-binding antagonists – biochemical, colorimetric, mouse EphA4, primary screen (AID 689). Format: functional.
Data set [16] addresses T2, Photoreceptor-specific nuclear receptor. The data set is classed as functional.
Another data set addresses Large T antigen (Simian virus 40, UniProt P03070). Format: functional, Betapolyomavirus macacae.
A further data set concerns the target T4, Estrogen receptor (Homo sapiens, UniProt P03372).
T4 sequence (P03372 whole entry): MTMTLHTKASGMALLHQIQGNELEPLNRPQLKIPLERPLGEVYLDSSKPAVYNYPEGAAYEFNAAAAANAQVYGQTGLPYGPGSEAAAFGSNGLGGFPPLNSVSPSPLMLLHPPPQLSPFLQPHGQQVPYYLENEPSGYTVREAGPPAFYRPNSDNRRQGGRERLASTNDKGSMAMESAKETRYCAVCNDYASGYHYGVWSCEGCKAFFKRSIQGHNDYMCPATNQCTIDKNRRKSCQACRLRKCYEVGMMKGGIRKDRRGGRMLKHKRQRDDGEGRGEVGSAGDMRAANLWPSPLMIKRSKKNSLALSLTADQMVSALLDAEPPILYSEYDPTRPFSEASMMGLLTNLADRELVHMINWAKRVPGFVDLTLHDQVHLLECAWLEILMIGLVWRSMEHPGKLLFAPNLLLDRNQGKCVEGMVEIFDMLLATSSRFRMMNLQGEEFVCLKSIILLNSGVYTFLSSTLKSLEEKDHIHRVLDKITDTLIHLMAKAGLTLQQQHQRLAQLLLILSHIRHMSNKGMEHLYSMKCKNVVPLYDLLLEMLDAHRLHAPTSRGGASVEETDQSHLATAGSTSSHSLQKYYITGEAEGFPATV

Data set [17] has as its target T5, Estrogen receptor beta (Homo sapiens, UniProt Q92731).
For data set [18], the target named is T5, Estrogen receptor beta. Put plainly: blockers of SRC-3 recruitment to ERβ – biochemical, ELISA, streptavidin-HRP readout, orthogonal assay, confirmation (AID 1060). A general note: An ELISA detects its analyte on a solid surface through an enzyme-linked reagent.
The target in data set [19] is T1, Peroxisome proliferator-activated receptor gamma/Nuclear receptor corepressor 2. Format: functional.
In data set [20] the target is Bifunctional protein GlmU (Mycobacterium tuberculosis, UniProt P9WMN3). Put plainly: Inhibitors of Mycobacterial Glucosamine-1-phosphate acetyl transferase (GlmU). Secondary screen. On the set-up: species or system Mycobacterium tuberculosis H37Rv.
Chain of Bifunctional protein GlmU (P9WMN3 whole entry): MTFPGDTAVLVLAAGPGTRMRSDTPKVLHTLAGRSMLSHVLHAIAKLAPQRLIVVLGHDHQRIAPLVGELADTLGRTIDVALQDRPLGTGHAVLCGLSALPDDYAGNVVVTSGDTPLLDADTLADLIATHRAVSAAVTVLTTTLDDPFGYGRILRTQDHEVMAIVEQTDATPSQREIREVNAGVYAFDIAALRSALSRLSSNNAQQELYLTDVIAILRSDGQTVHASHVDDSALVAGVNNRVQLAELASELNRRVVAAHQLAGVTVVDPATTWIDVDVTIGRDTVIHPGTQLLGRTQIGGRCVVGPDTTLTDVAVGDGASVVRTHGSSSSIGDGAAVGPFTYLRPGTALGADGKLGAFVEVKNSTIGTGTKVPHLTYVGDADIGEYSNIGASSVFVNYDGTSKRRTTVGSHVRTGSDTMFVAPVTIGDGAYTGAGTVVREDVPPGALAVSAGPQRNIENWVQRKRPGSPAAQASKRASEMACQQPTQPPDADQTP
Data set [21] has as its target FAD-linked sulfhydryl oxidase ALR (Homo sapiens, UniProt P55789). Put plainly: ALR-catalysed DTT oxidation blockers – biochemical, H2O2 detection, luminescence, cherry-pick, dose response (AID 493248).
In another data set the target is T6, Cysteine protease ATG4B (Homo sapiens, UniProt Q9Y4P1).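 Note: Fluorescence-based dose-response confirmation assay measuring inhibition of ATG4B activity.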
T6 sequence (Q9Y4P1 whole entry): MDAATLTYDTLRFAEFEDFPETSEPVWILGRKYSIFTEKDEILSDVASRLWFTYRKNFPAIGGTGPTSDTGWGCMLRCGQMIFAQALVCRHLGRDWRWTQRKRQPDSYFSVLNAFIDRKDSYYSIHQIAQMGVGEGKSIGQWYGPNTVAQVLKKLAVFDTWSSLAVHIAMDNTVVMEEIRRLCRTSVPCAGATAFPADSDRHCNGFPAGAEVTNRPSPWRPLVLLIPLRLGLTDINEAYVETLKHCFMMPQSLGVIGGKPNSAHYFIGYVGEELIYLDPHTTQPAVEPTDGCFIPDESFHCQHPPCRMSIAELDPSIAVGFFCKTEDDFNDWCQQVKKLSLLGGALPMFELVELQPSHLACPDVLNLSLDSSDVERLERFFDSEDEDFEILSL
Format: functional.

In a further data set the target is Phospholipase A2 (Homo sapiens, UniProt P04054). The data set is classed as functional.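 Note: confirmatory dose-response counterscreen on phospholipase A2, testing hits that came from an ultra-high-throughput screen for ATG4B inhibitors.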
A short description of data set [22]: IC50 of Artemis nuclease activity blockers – biochemical, fluorescence intensity, dose response (AID 720701).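 Note: Artemis endonuclease enzyme.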 Format: functional.
Data set [23] has as its target E3 ubiquitin-protein ligase Mdm2 (Homo sapiens, UniProt Q00987). The data set is described as follows: MDM2-luc reporter signal enhancers, multi-concentration potency testing, MDM2 ubiquitin-protein ligase inhibitor program, whole-cell format, luminescence detection, 384-well microplate (AID 1394).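 Note: MDM2 E3 inhibitors raise luminescence so EC50 is for signal enhancement.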 Format: functional.
Data set [24] can be described thus: M. tuberculosis growth inhibition, HTS (AID 449762). The data set is classed as functional.

The structures appear in SMILES notation. Calls of active or inactive are those of the source.

T5 sequence (Q92731 whole entry): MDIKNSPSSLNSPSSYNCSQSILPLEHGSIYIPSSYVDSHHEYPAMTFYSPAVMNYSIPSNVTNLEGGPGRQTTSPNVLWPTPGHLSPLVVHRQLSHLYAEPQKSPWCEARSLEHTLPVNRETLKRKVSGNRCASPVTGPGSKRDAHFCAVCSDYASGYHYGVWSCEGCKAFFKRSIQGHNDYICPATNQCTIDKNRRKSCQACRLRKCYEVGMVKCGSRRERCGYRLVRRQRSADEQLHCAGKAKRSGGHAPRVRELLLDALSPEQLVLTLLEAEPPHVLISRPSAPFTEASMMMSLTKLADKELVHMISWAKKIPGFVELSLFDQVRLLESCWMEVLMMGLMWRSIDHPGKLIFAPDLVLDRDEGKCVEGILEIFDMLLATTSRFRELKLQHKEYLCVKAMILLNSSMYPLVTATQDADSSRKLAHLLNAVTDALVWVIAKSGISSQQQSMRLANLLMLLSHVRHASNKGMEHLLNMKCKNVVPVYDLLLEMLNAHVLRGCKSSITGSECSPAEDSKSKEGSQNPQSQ
T2 sequence (Q9Y5X4 whole entry): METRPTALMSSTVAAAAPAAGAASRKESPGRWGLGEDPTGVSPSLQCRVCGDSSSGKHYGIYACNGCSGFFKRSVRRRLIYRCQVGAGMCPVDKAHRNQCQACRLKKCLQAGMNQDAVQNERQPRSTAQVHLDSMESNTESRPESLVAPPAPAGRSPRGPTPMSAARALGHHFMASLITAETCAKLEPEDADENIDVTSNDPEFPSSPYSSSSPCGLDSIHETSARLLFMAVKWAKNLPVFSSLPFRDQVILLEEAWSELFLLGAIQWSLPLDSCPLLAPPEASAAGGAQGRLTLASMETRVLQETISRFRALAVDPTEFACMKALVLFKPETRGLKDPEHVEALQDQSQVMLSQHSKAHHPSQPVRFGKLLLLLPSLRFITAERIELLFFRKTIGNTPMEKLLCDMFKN
Chain of Protein-tyrosine kinase 2-beta (Q14289 whole entry): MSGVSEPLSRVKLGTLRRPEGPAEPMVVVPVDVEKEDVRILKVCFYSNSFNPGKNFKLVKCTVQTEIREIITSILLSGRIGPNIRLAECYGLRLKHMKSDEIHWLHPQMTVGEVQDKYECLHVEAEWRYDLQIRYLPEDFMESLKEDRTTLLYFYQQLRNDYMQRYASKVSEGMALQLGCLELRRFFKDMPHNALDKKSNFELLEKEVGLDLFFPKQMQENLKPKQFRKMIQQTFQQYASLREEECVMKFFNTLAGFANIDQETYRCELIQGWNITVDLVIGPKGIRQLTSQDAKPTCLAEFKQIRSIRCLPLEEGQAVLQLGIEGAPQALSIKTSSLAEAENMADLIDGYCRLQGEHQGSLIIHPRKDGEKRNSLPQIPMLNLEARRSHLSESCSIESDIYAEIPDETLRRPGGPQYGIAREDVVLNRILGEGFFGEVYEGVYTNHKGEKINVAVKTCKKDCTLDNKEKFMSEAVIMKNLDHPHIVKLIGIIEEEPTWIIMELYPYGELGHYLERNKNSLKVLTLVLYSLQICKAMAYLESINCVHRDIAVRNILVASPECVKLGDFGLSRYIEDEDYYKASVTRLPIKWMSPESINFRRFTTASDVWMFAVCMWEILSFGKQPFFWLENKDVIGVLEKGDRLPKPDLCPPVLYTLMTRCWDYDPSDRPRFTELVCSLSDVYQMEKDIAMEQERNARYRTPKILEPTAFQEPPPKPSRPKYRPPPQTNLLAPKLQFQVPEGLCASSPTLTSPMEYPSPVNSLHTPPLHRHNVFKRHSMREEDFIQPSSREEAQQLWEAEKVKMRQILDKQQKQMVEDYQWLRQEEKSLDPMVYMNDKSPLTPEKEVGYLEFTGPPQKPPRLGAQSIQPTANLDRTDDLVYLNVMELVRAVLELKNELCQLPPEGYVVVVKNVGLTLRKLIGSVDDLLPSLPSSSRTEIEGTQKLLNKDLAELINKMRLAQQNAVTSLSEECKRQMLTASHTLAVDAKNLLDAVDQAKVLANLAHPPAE
Chain of Cytochrome P450 3A4 (P08684 whole entry): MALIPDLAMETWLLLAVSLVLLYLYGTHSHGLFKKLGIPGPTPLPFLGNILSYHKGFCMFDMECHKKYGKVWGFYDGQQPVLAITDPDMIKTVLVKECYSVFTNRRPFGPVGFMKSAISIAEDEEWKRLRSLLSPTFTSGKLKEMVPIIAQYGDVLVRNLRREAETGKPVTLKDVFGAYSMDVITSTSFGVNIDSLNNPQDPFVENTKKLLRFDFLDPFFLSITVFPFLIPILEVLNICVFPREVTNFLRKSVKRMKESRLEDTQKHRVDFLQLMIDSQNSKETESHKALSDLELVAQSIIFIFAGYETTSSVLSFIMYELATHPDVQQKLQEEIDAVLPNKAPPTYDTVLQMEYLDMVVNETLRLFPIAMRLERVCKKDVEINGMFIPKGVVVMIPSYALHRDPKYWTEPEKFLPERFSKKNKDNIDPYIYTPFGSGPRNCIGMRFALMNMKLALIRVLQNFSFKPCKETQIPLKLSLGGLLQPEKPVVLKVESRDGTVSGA
Chain of Ephrin type-A receptor 4 (Q03137 whole entry): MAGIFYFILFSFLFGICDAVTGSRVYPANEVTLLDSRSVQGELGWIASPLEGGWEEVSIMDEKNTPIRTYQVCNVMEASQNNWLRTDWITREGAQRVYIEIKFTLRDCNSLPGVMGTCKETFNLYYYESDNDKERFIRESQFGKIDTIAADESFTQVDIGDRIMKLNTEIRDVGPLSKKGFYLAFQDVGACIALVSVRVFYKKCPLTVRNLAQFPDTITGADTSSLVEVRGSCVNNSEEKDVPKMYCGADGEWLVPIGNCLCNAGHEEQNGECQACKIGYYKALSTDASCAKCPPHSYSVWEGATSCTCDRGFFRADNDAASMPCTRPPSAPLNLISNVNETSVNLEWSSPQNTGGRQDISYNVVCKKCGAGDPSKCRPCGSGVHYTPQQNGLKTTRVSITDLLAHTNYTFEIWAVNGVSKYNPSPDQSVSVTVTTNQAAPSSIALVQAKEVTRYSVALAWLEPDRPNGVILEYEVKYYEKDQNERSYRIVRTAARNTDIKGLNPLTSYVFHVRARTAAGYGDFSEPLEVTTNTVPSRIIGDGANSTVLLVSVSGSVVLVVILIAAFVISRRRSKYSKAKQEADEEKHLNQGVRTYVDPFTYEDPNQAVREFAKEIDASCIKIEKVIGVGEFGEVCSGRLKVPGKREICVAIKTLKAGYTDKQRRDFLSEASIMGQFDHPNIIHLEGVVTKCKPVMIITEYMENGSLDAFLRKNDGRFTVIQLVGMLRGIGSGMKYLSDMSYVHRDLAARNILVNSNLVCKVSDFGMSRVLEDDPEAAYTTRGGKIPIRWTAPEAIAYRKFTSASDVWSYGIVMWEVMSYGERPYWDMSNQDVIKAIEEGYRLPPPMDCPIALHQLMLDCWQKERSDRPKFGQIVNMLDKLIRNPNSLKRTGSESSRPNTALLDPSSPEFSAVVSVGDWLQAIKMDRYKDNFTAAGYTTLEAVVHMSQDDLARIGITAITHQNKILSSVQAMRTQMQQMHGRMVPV
Chain of Mitogen-activated protein kinase 10 (P53779 whole entry): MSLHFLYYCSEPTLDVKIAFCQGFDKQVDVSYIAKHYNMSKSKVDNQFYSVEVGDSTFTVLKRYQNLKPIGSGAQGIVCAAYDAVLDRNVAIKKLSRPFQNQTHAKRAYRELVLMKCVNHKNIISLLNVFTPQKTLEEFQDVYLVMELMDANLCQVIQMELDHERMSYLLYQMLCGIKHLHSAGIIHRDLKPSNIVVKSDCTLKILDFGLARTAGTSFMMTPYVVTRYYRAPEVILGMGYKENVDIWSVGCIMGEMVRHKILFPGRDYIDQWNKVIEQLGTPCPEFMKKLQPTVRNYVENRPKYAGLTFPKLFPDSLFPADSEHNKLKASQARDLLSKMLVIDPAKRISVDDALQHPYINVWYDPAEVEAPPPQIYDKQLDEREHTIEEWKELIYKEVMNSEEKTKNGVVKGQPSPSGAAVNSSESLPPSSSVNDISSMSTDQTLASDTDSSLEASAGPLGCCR

As a reminder, the EC50 is the concentration needed to bring the measured effect to its halfway point. As a reminder, the IC50 is the concentration needed to halve the response being measured. In the case of `COc1ccc(C(=O)Nc2nc3ccc4nc(C)sc4c3s2)cc1`, the EC50 is 45.2 µM (inactive) in [1], 58.7 µM (not active) in [2] and 37.9 µM (not active) in data set [6]. Moreover, the IC50 in data set [3] is 1.45 µM (active); in data set [4] it was 2.19 µM (active); in data set [5], 0.862 µM (active).
The AC50 is the concentration at which the activity in the assay is half-maximal. Take `Cc1nn(-c2ccccc2)c2c1C(c1ccc(O)c(O)c1)N1C(=N2)C(Nc2ccccc2)=Nc2ccccc21` (stereo unspecified): in data set [7], the IC50 was 4.68 µM (active). Moreover, the EC50 is 0.772 µM (active) in data set [8], 1.53 µM (active) at Streptokinase A and 5.88 µM (active) with Streptococcus. In addition, the concentration at half-maximal activity (AC50) on Cytochrome P450 3A4 was 14.1 µM (inconclusive).
Consider `CCOC(=O)c1cccc2c1-c1ccccc1/C2=N/O`, for which the IC50 in data set [3] was 7.48 µM (active); in [9] it was 11.5 µM (not active). Besides, the AC50 at Cytochrome P450 3A4 is 28.2 µM (inconclusive); on Cytochrome P450 2D6, “inconclusive”.
With `CCOC(=O)c1sc(NC(=O)c2ccc(C)o2)nc1C`, the EC50 in [10] is 0.541 µM (active); in data set [11], 0.306 µM (active); in data set [12] it was < 0.1 µM (inconclusive); in the data set with H4 it was 3.76 µM (active); in data set [13], 0.421 µM (active); in [15] it was 0.793 µM (active). Besides, in data set [14], the concentration for half-maximal inhibition (IC50) is 6.55 µM (active).
For the compound `Cc1occc1-c1nnc(SCC(=O)Nc2ccccc2-c2ccccc2)n1C`, the IC50 at Ephrin type-A receptor 4 is > 100 µM (not active).
Regarding `O=C(O)c1cc(-c2ccco2)nc2ccc(Br)cc12`, the IC50 in data set [16] is > 39.8 µM (not active); at Large T antigen it was 78.6 µM (active); against Estrogen receptor it was 47.6 µM (not active); at Estrogen receptor beta [17], 9.82 µM (active); on Estrogen receptor beta [18], < 0.023 µM (not active); in data set [19], 1.38 µM (active). In addition, the IC50 in data set [20] is 81.9 µM (active); at Cysteine protease ATG4B it was 9.96 µM (active); on Phospholipase A2, 12.2 µM (active); in data set [22], > 20 µM (inactive). The AC50 in data set [21] was 0.785 µM (active).
Take `COc1ccc(OC)c(CNn2c(-c3ccccc3F)nc3ccccc3c2=O)c1`: the 50% effective concentration (EC50) in [23] is given as 85 µM (not active).
Regarding `O=C(N/N=C/c1c(F)c(F)c(F)c(F)c1F)c1cccc(S(=O)(=O)N2CCOCC2)c1`, the 50% inhibitory concentration (IC50) in data set [24] was > 100 µM (active).

(Values after ChEMBL document CHEMBL1201862, “PubChem BioAssay data set” (2004).)
